Assays:
HEK293 cells = assay: MTT cytotoxicity assay; assay type: cell-based, human; conditions: HEK293, 24 h, 0 to 100 µM
SARS-CoV-2 M^pro = SARS-CoV-2 M^pro (Severe acute respiratory syndrome coronavirus 2, UniProt P0DTD1); assay type: binding; conditions: modified Stern–Volmer plot
[1] = ref [41]; cited from earlier work

Compound	cytotoxicity / cell viability (HEK293 cells)	KSV (SARS-CoV-2 M^pro) [M⁻¹]	number of binding sites (SARS-CoV-2 M^pro)	solubility in organic solvents [1]
O=c1c(O)c(-c2ccc(O)c(O)c2)oc2cc(O)cc(O)c12 [Quercetin]	consistent and high cell viability	–	–	–
COc1cc2ccc(=O)oc2cc1O [Scopoletin, 6-methoxy-7-hydrocoumarian]	maintained acceptable cell viability	932000	one	dissolves in organic solvents such as methanol and chloroform

Reference: article PMC11945487 (Viruses, 2025)
